Read-outs that look alike come from different tables or passages of the source. Marks after values point to notes of the source that are not given here.
Assays:
Assay type in all cases: biochemical, Arthrobacter globiformis M30
ketose 3-epimerase [1] = target: T1, ketose 3-epimerase (Arthrobacter globiformis, UniProt A0A1L7NQ96); assay: D-PE substrate specificity, enzyme before purification (crude enzyme); conditions: 0.2 M substrate, 55° C., 30 min, Tris buffer pH 7.0, D-psicose epimerization activity taken as 100
T1 sequence (A0A1L7NQ96 whole entry): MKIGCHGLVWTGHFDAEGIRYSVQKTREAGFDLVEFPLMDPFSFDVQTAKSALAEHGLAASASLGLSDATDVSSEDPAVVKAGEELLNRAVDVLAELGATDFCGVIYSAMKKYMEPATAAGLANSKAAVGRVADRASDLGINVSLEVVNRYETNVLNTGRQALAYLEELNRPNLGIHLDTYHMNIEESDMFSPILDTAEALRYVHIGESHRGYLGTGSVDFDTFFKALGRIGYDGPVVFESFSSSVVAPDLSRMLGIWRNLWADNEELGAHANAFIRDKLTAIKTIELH
Protocol: A reaction was allowed under the reaction conditions below. After quenching the reaction by boiling, the reaction liquid was desalted with an ion-exchange resin, and filtered to prepare an HPLC sample. The sample was analyzed by chromatography using CK08EC (Mitsubishi Chemical Corporation) in an HPLC system (Tosoh). Each product sugar was determined by calculations from the peak area values of the chromatogram.
Eight hexose (ketoses) were used to examine the substrate specificity of the present enzyme before purification. An enzyme reaction composition (Table 4) containing each substrate (0.2 M, 350 μl) and an enzyme liquid (350 μl; Tris buffer pH 7.0) was allowed to react at 55° C. for 30 min, and the ketose epimerized and produced from each sugar was analyzed by HPLC. The results are presented as relative activity for each ketose relative to the D-psicose epimerization activity which is taken as 100, as follows. Table 5 presents relative activity values for D-fructose, D-psicose, D-sorbose, D-tagatose, L-fructose, L-psicose, L-sorbose, […] L-tagatose substrates. The activity was the highest for D-psicose, and the second highest for D-fructose. The substrate specificity can be said as characteristic of the D-psicose 3 epimerase (DPE), not other free ketose 3 epimerases, and was clearly different from the specificity of the D-tagatose3-epimerase (DTE) of Pseudomonas cichorii.

ketose 3-epimerase [2] = target: T1, ketose 3-epimerase; assay: Substrate specificity of purified enzyme for all ketohexoses; conditions: 400 mM substrate, 20 mM MgCl2, 70° C. (120 min for D-sorbose and L-fructose, 20 min others), D-psicose taken as 100
Protocol: The reactivity of the present enzyme was examined with respect to the all ketohexoses. The enzyme activity was tabulated as the relative activity with respect to the activity for D-psicose which is taken as 100. The present enzyme had activity for the all ketohexoses, and the activity was the highest for D-psicose. […] The initial velocity was determined by allowing a reaction at 70° C. for 120 min for D-sorbose and L-fructose, and 70° C. for 20 min for the other substrates.

ketose 3-epimerase [3] = target: T1, ketose 3-epimerase; assay: Effects of metal ions on EDTA treated purified enzyme; conditions: for Relative activity (%): 1 mM metal ion, D-psicose substrate, EDTA treated enzyme, activity without metal ions taken as 100; for metal ion activation: purified enzyme
Protocol: The enzyme was examined for metal ion requirement. The purified enzyme was dialyzed for 2 hours against 10 mM Tris-HCl containing 1 mM EDTA (pH 7.5). The enzyme was further dialyzed against an EDTA-free 10 mM Tris-HCl buffer (pH 7.5) for a whole day and night to obtain an EDTA treated enzyme. This enzyme was used to measure the effect of metal ions on enzyme activity, using 1 mM of various metal ions, and D-psicose as the substrate. The results are presented in Table 13, in which the activity with addition of each type of metal ions is shown as the relative value with respect to the activity of the enzyme without metal ions which is taken as 100.

ketose 3-epimerase [4] = target: T1, ketose 3-epimerase
ketose 3-epimerase [5] = target: T1, ketose 3-epimerase; assay: Km and Vmax of the present enzyme; conditions: 30° C., in the presence of Mg^2+ ions
Protocol: The Km and Vmax of the present enzyme for D-psicose and D-fructose were measured. The measurement was made by measuring enzyme activity at 30° C. in the presence of Mg^2+ ions.

[6] = crude enzyme dialyzed against EDTA, D-fructose substrate, pH 7.0, 55° C., 30 min

Row | Compound | Relative activity (%) (ketose 3-epimerase [1]) | Relative activity (%) (ketose 3-epimerase [2]) | Relative activity (%) (ketose 3-epimerase [3]) | also measured
1 | O=C(CO)[C@H](O)[C@@H](O)[C@H](O)CO [D-sorbose] | 1.25% | 1.13% |  | 
2 | [Co+2] [Co^2+, divalent cobalt ions] |  |  | 130% | metal ion activation (ketose 3-epimerase [3]): activatable; metal ion activation (effect of metal salt on enzyme activity) (ketose 3-epimerase [4]; [6]): activatable
3 | O=C(CO)[C@H](O)[C@H](O)[C@H](O)CO [D-psicose] | 100* % | 100% |  | Km (ketose 3-epimerase [5]): 30.1 mM; Vmax (ketose 3-epimerase [5]): 168 U/mg
4 | O=C(CO)[C@@H](O)[C@@H](O)[C@@H](O)CO [L-psicose] | 12% | 21.2% |  | 
5 | [Zn+2] [Zn^2+] |  |  | 0% | 
6 | manganese chloride [MnCl2] |  |  |  | metal ion activation (effect of metal salt on enzyme activity) (ketose 3-epimerase [4]; [6]): increased
7 | [Mg+2] [Mg^2+, magnesium ions] |  |  | 150% | metal ion activation (ketose 3-epimerase [3]): activatable
8 | O=C(CO)[C@H](O)[C@@H](O)[C@@H](O)CO [L-fructose] | 12% | 0.97% |  | 
9 | O=C(CO)[C@@H](O)[C@H](O)[C@H](O)CO [D-fructose] | 58.14% | 43.8% |  | Km (ketose 3-epimerase [5]): 31.5 mM; Vmax (ketose 3-epimerase [5]): 68.5 U/mg
10 | [Na+] [Na^+] |  |  | 120% | 
11 | [Cl-].[Cl-].[Co+2] [CoCl2] |  |  |  | metal ion activation (effect of metal salt on enzyme activity) (ketose 3-epimerase [4]; pH 7): increased
12 | O=C(CO)[C@@H](O)[C@H](O)[C@@H](O)CO [L-sorbose] | 8% | 16.6% |  | 
13 | [Mn+2] [Mn^2+, divalent manganese ions] |  |  | 137% | metal ion activation (ketose 3-epimerase [3]): activatable; metal ion activation (effect of metal salt on enzyme activity) (ketose 3-epimerase [4]; [6]): activatable
14 | [Ni+2] [Ni^2+] |  |  | 87% | 
15 | [Cu+2] [Cu^2+] |  |  | 0% | 
16 | O=C(CO)[C@@H](O)[C@@H](O)[C@H](O)CO [D-tagatose] | 5.42% | 18.3% |  | 
17 | O=C(CO)[C@H](O)[C@H](O)[C@@H](O)CO [L-tagatose] | 12.5% | 44.0% |  | 
18 | [Fe+2] [Fe^2+] |  |  | 32% | 
19 | [Ca+2] [Ca^2+, calcium] |  |  | 110% | metal ion activation (ketose 3-epimerase [3]): activatable
